Measurements reported in PubChem BioAssay AID248 (DTP/NCI, 2004).
Where “and” joins values, the source holds several entries; their conditions need not be identical. Equal entries are not always repeated. Inconclusive results and toxic doses are left out.

System: L1210 leukemia ip in BDF1 mice, survival T/C
Assay: NCI In Vivo Anticancer Drug Screen. Data for tumor model L1210 Leukemia (intraperitoneal) in B6D2F1 (BDF1) mice
Settings: endpoint: mean survival time, higher = longer survival
In short: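 Ratio derived from survival: compound-dosed mice over vehicle-dosed mice, all bearing a transplantable tumor.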

[1] = dose: 100.0 mg/kg/injection, schedule: Q01DX001 (ip), vehicle: saline with Tween-80
[2] = dose: 200.0 mg/kg/injection, schedule: Q01DX001 (ip), vehicle: saline with Tween-80
[3] = dose: 100.0 mg/kg/injection, schedule: Q04DX003 (ip), vehicle: Klucel (hydroxypropylcellulose) (HPC)
[4] = dose: 200.0 mg/kg/injection, schedule: Q04DX003 (ip), vehicle: Klucel (hydroxypropylcellulose) (HPC)
[5] = dose: 400.0 mg/kg/injection, schedule: Q04DX003 (ip), vehicle: Klucel (hydroxypropylcellulose) (HPC)
[6] = dose: 100.0 mg/kg/injection, schedule: Q01DX009 (ip), vehicle: saline with Tween-80
[7] = dose: 100.0 mg/kg/injection, schedule: Q01DX009 (ip), vehicle: saline
[8] = dose: 100.0 mg/kg/injection, schedule: Q04DX003 (ip), vehicle: saline with Tween-80
[9] = dose: 200.0 mg/kg/injection, schedule: Q01DX009 (ip), vehicle: saline with Tween-80
[10] = dose: 200.0 mg/kg/injection, schedule: Q04DX003 (ip), vehicle: saline with Tween-80
[11] = dose: 400.0 mg/kg/injection, schedule: Q01DX001 (ip), vehicle: saline with Tween-80
[12] = dose: 400.0 mg/kg/injection, schedule: Q04DX003 (ip), vehicle: saline with Tween-80
[13] = dose: 100.0 mg/kg/injection, schedule: Q01DX001 (ip), vehicle: Klucel (hydroxypropylcellulose) (HPC)
[14] = dose: 200.0 mg/kg/injection, schedule: Q01DX001 (ip), vehicle: Klucel (hydroxypropylcellulose) (HPC)
[15] = dose: 400.0 mg/kg/injection, schedule: Q01DX001 (ip), vehicle: Klucel (hydroxypropylcellulose) (HPC)
[16] = dose: 100.0 mg/kg/injection, schedule: Q01DX009 (ip), vehicle: Klucel (hydroxypropylcellulose) (HPC)
[17] = dose: 200.0 mg/kg/injection, schedule: Q01DX009 (ip), vehicle: Klucel (hydroxypropylcellulose) (HPC)

COc1cc(NS(C)(=O)=O)ccc1Nc1c2ccccc2nc2c(C)cccc12
T/C (dose: 0.62 mg/kg/injection, schedule: Q01DX009 (ip), vehicle: saline): 100 % of control | T/C (dose: 1.25 mg/kg/injection, schedule: Q01DX009 (ip), vehicle: Klucel (hydroxypropylcellulose) (HPC)): 124 % of control | T/C (dose: 1.25 mg/kg/injection, schedule: Q01DX009 (ip), vehicle: saline): 111 % of control | T/C (dose: 2.5 mg/kg/injection, schedule: Q01DX009 (ip), vehicle: saline): 160 % of control | T/C (dose: 2.5 mg/kg/injection, schedule: Q01DX009 (sc), vehicle: saline): 116 % of control | T/C (dose: 2.5 mg/kg/injection, schedule: Q04DX003 (ip), vehicle: saline): 121 % of control | T/C (dose: 5.0 mg/kg/injection, schedule: Q01DX009 (ip), vehicle: Klucel (hydroxypropylcellulose) (HPC)): 118 % of control | T/C (dose: 5.0 mg/kg/injection, schedule: Q01DX009 (ip), vehicle: saline): 163 % of control | T/C (dose: 10.0 mg/kg/injection, schedule: Q01DX009 (ip), vehicle: Klucel (hydroxypropylcellulose) (HPC)): 103 % of control | T/C (dose: 10.0 mg/kg/injection, schedule: Q01DX009 (sc), vehicle: saline): 112 % of control | T/C (dose: 10.0 mg/kg/injection, schedule: Q04DX003 (ip), vehicle: saline): 159 % of control and 164 % of control | T/C (dose: 20.0 mg/kg/injection, schedule: Q04DX003 (ip), vehicle: saline): 213 % of control and 234 % of control

CCCCC#CC(=O)OCC
T/C (dose: 100.0 mg/kg/injection, schedule: Q04DX002 (ip), vehicle: saline): 97 % of control | T/C (dose: 200.0 mg/kg/injection, schedule: Q04DX002 (ip), vehicle: saline): 97 % of control | T/C (dose: 400.0 mg/kg/injection, schedule: Q04DX002 (ip), vehicle: saline): 112 % of control

CCCC(OC(C)=O)C(C)[N+](=O)[O-] (stereo unspecified)
T/C (dose: 50.0 mg/kg/injection, schedule: Q01DX001 (ip), vehicle: saline with Tween-80): 96 % of control | T/C [1]: 92 % of control | T/C [2]: 103 % of control

O=C(CC(=O)c1ccccc1)Cc1ccccc1.O=C(CC(=O)c1ccccc1)Cc1ccccc1.[Cu]
T/C [3]: 94 % of control | T/C [4]: 97 % of control | T/C [5]: 104 % of control

O=c1[nH][nH]c(=O)n1O
T/C [1]: 102 % of control | T/C (dose: 100.0 mg/kg/injection, schedule: Q01DX009 (ip), vehicle: acetone): 105 % of control | T/C [6]: 91 % of control | T/C [7]: 94 % of control and 92 % of control | T/C [8]: 101 % of control and 109 % of control | T/C (dose: 130.0 mg/kg/injection, schedule: Q01DX009 (ip), vehicle: saline): 89 % of control | T/C [2]: 106 % of control | T/C [9]: 88 % of control | T/C [10]: 102 % of control and 105 % of control | T/C (dose: 300.0 mg/kg/injection, schedule: Q01DX009 (ip), vehicle: saline): 98 % of control and 89 % of control | T/C [11]: 104 % of control | T/C (dose: 400.0 mg/kg/injection, schedule: Q01DX009 (ip), vehicle: acetone): 88 % of control | T/C (dose: 400.0 mg/kg/injection, schedule: Q01DX009 (ip), vehicle: saline): 88 % of control | T/C [12]: 98 % of control and 89 % of control

N#CC(O)C1(O)CCCCC1 (stereo unspecified)
T/C (dose: 6.25 mg/kg/injection, schedule: Q04DX003 (ip), vehicle: saline sonified): 101 % of control | T/C (dose: 12.5 mg/kg/injection, schedule: Q04DX003 (ip), vehicle: saline sonified): 101 % of control | T/C (dose: 25.0 mg/kg/injection, schedule: Q04DX003 (ip), vehicle: saline sonified): 94 % of control

COc1cccc2c1CC/C(=C\c1cccnc1)C2=O
T/C (dose: 100.0 mg/kg/injection, schedule: Q04DX003 (ip), vehicle: carboxymethylcellulose (CMC)): 103 % of control | T/C (dose: 200.0 mg/kg/injection, schedule: Q04DX003 (ip), vehicle: carboxymethylcellulose (CMC)): 102 % of control | T/C (dose: 400.0 mg/kg/injection, schedule: Q04DX003 (ip), vehicle: carboxymethylcellulose (CMC)): 95 % of control

COc1ccccc1-n1c(O)c(N=Nc2ccccc2C)c(=O)n(-c2ccccc2)c1=S
T/C [13]: 110 % of control | T/C [14]: 96 % of control | T/C [15]: 96 % of control

COc1ccc(NC(=S)Nc2ccc(OC)cc2)cc1
T/C [16]: 101 % of control | T/C [3]: 103 % of control | T/C [17]: 105 % of control | T/C [4]: 103 % of control | T/C (dose: 400.0 mg/kg/injection, schedule: Q01DX009 (ip), vehicle: Klucel (hydroxypropylcellulose) (HPC)): 92 % of control | T/C [5]: 94 % of control

CS(=O)(=O)OC[C@@H](O)[C@@H](O)COS(C)(=O)=O
T/C (dose: 100.0 mg/kg/injection, schedule: Q01DX009 (ip), vehicle: saline sonified): 101 % of control | T/C (dose: 200.0 mg/kg/injection, schedule: Q01DX009 (ip), vehicle: saline sonified): 98 % of control | T/C (dose: 400.0 mg/kg/injection, schedule: Q01DX009 (ip), vehicle: saline sonified): 103 % of control

O=S(=O)(OC1CC2C=CC1C21CC1)c1ccc(Br)cc1 (stereo unspecified)
T/C [13]: 98 % of control | T/C [14]: 97 % of control | T/C [15]: 94 % of control

CCN(CC)CC(O)Cn1cnc2cncnc21 (stereo unspecified)
T/C (dose: 25.0 mg/kg/injection, schedule: Q04DX003 (ip), vehicle: saline): 98 % of control | T/C (dose: 50.0 mg/kg/injection, schedule: Q04DX003 (ip), vehicle: saline): 107 % of control | T/C (dose: 100.0 mg/kg/injection, schedule: Q04DX003 (ip), vehicle: saline): 98 % of control

CN(C)c1ccc(/C=N/NC(=O)C2CCCO2)c(Cl)c1 (stereo unspecified)
T/C [16]: 102 % of control | T/C [17]: 98 % of control

COc1ccc(C(=O)/C=C2\C(=O)Nc3ccc(Br)cc32)cc1
T/C (dose: 100.0 mg/kg/injection, schedule: Q04DX002 (ip), vehicle: Klucel (hydroxypropylcellulose) (HPC)): 107 % of control | T/C (dose: 200.0 mg/kg/injection, schedule: Q04DX002 (ip), vehicle: Klucel (hydroxypropylcellulose) (HPC)): 100 % of control | T/C (dose: 400.0 mg/kg/injection, schedule: Q04DX002 (ip), vehicle: Klucel (hydroxypropylcellulose) (HPC)): 93 % of control

CC1(C)C2CC3C(CCC4C(=O)OC(=O)C43)C1C2 (stereo unspecified)
T/C [13]: 97 % of control | T/C [14]: 98 % of control | T/C [15]: 103 % of control

CCCCNC(=O)n1ncc2cc(Cl)ccc21
T/C (dose: 100.0 mg/kg/injection, schedule: Q01DX001 (ip), vehicle: saline): 103 % of control | T/C (dose: 200.0 mg/kg/injection, schedule: Q01DX001 (ip), vehicle: saline): 100 % of control | T/C (dose: 400.0 mg/kg/injection, schedule: Q01DX001 (ip), vehicle: saline): 94 % of control

CCCCCCCCCCCCNC(C1=C(O)c2ccccc2C(=O)C1=O)c1ccccc1 (stereo unspecified)
T/C [1]: 95 % of control | T/C [2]: 88 % of control | T/C [11]: 95 % of control

COC(=O)c1ccccc1NC(=O)Nc1cc(Cl)ccc1C
T/C [1]: 87 % of control | T/C [6]: 91 % of control and 92 % of control | T/C (dose: 100.0 mg/kg/injection, schedule: Q04DX002 (ip), vehicle: saline with Tween-80): 95 % of control and 88 % of control | T/C [8]: 101 % of control | T/C [2]: 90 % of control | T/C [9]: 93 % of control and 94 % of control | T/C (dose: 200.0 mg/kg/injection, schedule: Q04DX002 (ip), vehicle: saline with Tween-80): 88 % of control and 91 % of control | T/C [10]: 92 % of control | T/C [11]: 88 % of control | T/C (dose: 400.0 mg/kg/injection, schedule: Q01DX009 (ip), vehicle: saline with Tween-80): 94 % of control and 101 % of control | T/C (dose: 400.0 mg/kg/injection, schedule: Q04DX002 (ip), vehicle: saline with Tween-80): 93 % of control and 91 % of control | T/C [12]: 90 % of control

CC(NC(=O)C(N)CSC(c1ccccc1)(c1ccccc1)c1ccccc1)C(=O)O (stereo unspecified)
T/C (dose: 25.0 mg/kg/injection, schedule: Q01DX009 (ip), vehicle: other): 121 % of control | T/C (dose: 25.0 mg/kg/injection, schedule: Q01DX009 (ip), vehicle: saline): 114 % of control | T/C (dose: 50.0 mg/kg/injection, schedule: Q01DX009 (ip), vehicle: saline): 122 % of control | T/C [7]: 152 % of control | T/C (dose: 200.0 mg/kg/injection, schedule: Q01DX009 (ip), vehicle: other): 88 % of control | T/C (dose: 200.0 mg/kg/injection, schedule: Q01DX009 (ip), vehicle: saline): 111 % of control
